Measurements taken from PubChem BioAssay (NCI).
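Cells were grown in 96-well plates and exposed to each compound for 48 hours at five concentrations; endpoints were interpolated linearly between bracketing concentrations, or set to the highest concentration if not reached. Here, GI50 denotes the concentration required for 50% inhibition of growth. TGI is the concentration that stops growth completely.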

What was measured:
Test in all cases: DTP human tumour cell line panel, 48 h
UACC-257 melanoma = system: UACC-257 melanoma
EKVX NSCLC = system: EKVX NSCLC
SR leukemia = system: SR leukemia
HCC-2998 colon = system: HCC-2998 colon
SN12C renal = system: SN12C renal
COLO 205 colon = system: COLO 205 colon
IGROV1 ovarian = system: IGROV1 ovarian
KM12 colon = system: KM12 colon
HOP-92 NSCLC = system: HOP-92 NSCLC
MCF7 breast = system: MCF7 breast

SMILES | TGI (UACC-257 melanoma) [µM] | TGI (EKVX NSCLC) [µM] | TGI (SR leukemia) [µM] | TGI (HCC-2998 colon) [µM] | TGI (SN12C renal) [µM] | TGI (COLO 205 colon) [µM] | TGI (IGROV1 ovarian) [µM] | TGI (KM12 colon) [µM] | TGI (HOP-92 NSCLC) [µM] | TGI (MCF7 breast) [µM] | GI50 (UACC-257 melanoma) [µM] | GI50 (EKVX NSCLC) [µM] | GI50 (SR leukemia) [µM] | GI50 (SN12C renal) [µM] | GI50 (COLO 205 colon) [µM] | GI50 (IGROV1 ovarian) [µM] | GI50 (KM12 colon) [µM] | GI50 (HOP-92 NSCLC) [nM] | GI50 (HCC-2998 colon) [nM] | GI50 (MCF7 breast) [nM]
O=[N+]([O-])c1ccc(Cl)c(C2CC(c3cccc4ccccc34)=Nc3ccccc3S2)c1 (stereo not given) | > 100 | > 100 | 68.9 | > 100 | > 59.4 | > 100 | > 100 | > 100 | 49.8 |  |  |  |  |  |  |  |  |  |  | 
O=C(/C=C/c1ccco1)c1ccc(NCc2nc3ccccc3[nH]2)cc1 | 23.2 | 29.9 | 37.7 | 27.7 | 32 | 26.7 | 34.1 | 22.6 | 30.6 |  |  |  |  |  |  |  |  |  |  | 
CN(C)c1ccc(/C=C/c2ccc(/C=C/c3ccc(N(C)C)cc3)cc2)cc1 | > 100 | > 100 |  | > 100 | > 100 | > 100 | > 100 | > 100 | > 100 |  |  |  |  |  |  |  |  |  |  | 
O=[N+]([O-])c1ccc(-c2noc(-c3ccc(Cl)cc3)c2C2=NCCN2)cc1 | > 100 | > 100 | > 100 | > 100 | > 100 | > 100 | > 100 | > 100 |  |  |  |  |  |  |  |  |  |  |  | 
ON(Cc1ccccc1)C(=S)c1ccccc1 | 39.4 | > 100 |  | 98.1 | > 100 | > 93.8 | > 100 | > 63.6 | > 100 | > 100 |  |  |  |  |  |  |  |  |  | 
O=C1NC(=O)C(=Nc2cccc3c(=O)[nH][nH]c(=O)c23)C(c2nc3ccccc3s2)C1=O (stereo not given) | > 100 | > 100 |  | > 100 | > 100 | > 100 | > 100 | > 100 | > 100 |  |  |  |  |  |  |  |  |  |  | 
COC(=O)/C(=N/Nc1cccc(Cl)c1)C(C(=O)C(=O)Nc1cccc(Cl)c1C)c1nc2ccccc2nc1C (stereo not given) | > 100 | > 100 | > 100 | > 100 | > 100 | > 100 | > 100 | > 100 |  |  |  |  |  |  |  |  |  |  |  | 
S=C(Nc1ccc(N=Nc2ccccc2)cc1)SCc1ccccc1 | 33.3 | 48.6 |  |  | 29.2 | 42.1 | 32.6 | 30.6 | 30.4 | 64.6 |  |  |  |  |  |  |  |  |  | 
CCN(CC)c1ccc(N=Nc2ccc([N+](=O)[O-])cc2OC(=O)/C=C/c2ccccc2)c(OC(=O)/C=C/c2ccccc2)c1 | 99.7 | > 100 | > 100 | > 100 | > 100 | > 100 | > 100 | > 35.8 | > 100 |  |  |  |  |  |  |  |  |  |  | 
Cc1cc(-c2ccccc2)nc(Nc2nc3ccccc3o2)n1 | > 100 | > 100 | > 100 | > 100 | > 100 | > 100 | > 100 | > 100 | > 100 |  |  |  |  |  |  |  |  |  |  | 
NC(=O)c1ccccc1NC(=O)C(=O)Cc1nc2ccccc2[nH]c1=O | > 100 | > 100 |  | > 100 |  | > 100 | > 100 | > 100 | > 100 |  |  |  |  |  |  |  |  |  |  | 
O=C(CSc1ncn[nH]1)C[P+](c1ccccc1)(c1ccccc1)c1ccccc1 | > 100 | > 100 |  | > 100 | > 100 | > 100 | > 100 | > 100 | > 100 |  |  |  |  |  |  |  |  |  |  | 
Cn1c(=O)c(NC(=O)C(Cl)(Cl)Cl)nc2ccccc21 | > 100 | > 100 |  | > 100 | > 100 | > 100 | > 100 | > 100 |  |  |  |  |  |  |  |  |  |  |  | 
Nc1cc(O)ccc1N=Nc1ccc(-c2nc3ccccc3[nH]2)cc1 | > 100 | 92.1 | > 100 |  | > 100 | > 100 | > 100 | > 100 | 15.5 |  | 65.3 | 21 | 68.5 | 53.5 | 34.9 | 19.7 | 5.07 | 670 |  | 
Cc1ccc(NC(=O)C2C(=O)N(c3ccc(C)c(C)c3)C(=O)/C2=N\NC(N)=O)cc1C (stereo not given) | > 100 | > 100 |  | > 100 | > 100 | > 100 | > 100 | > 100 | > 100 |  |  |  |  |  |  |  |  |  |  | 
CCOc1ccc2c(c1)[n+]([O-])c(-c1ccc(Br)cc1)c(N)[n+]2[O-] | > 100 | > 100 |  | > 100 | > 100 | 52.4 | > 100 | > 100 |  |  |  |  |  |  |  |  |  |  |  | 
NC1=NC(c2ccc(Cl)cc2)N(c2ccc(S(N)(=O)=O)cc2)C(N)=N1 (stereo not given) | > 100 | > 100 | > 100 |  | > 100 | > 100 | > 100 | > 100 | > 100 | > 100 |  |  |  |  |  |  |  |  |  | 
CCn1c(SC(C)C(=O)c2c(C)n(C)n(-c3ccccc3)c2=O)nc2ccccc2c1=O (stereo not given) | > 100 | > 100 | > 100 |  | > 100 | > 100 | > 100 | > 100 | > 100 |  |  |  |  |  |  |  |  |  |  | 
Nc1c(O)cc(N=C2C(=O)C=CC=C2C(=O)O)c(O)c1C(=O)O | > 100 | > 100 | > 100 | > 31.6 | > 100 | > 100 | > 100 | > 100 | > 100 |  |  |  |  |  |  |  |  |  |  | 
Cc1noc2c1C(=O)CCC2 | > 100 | > 100 | > 100 |  | > 100 | > 100 |  |  | > 100 |  |  |  |  |  |  |  |  |  |  | 
S=c1nc(COc2ccc(Cl)cc2Cl)[nH][nH]1 | > 100 | > 100 | > 100 | > 100 | > 100 |  | > 100 |  | > 100 |  |  |  |  |  |  |  |  |  |  | 
Cc1cccc(C(C)C)c1N1C(=O)C(=O)C(c2nc3ccccc3o2)C(=O)C1=O | > 100 | > 100 | > 100 | > 100 | > 100 | > 100 | > 100 | > 100 | > 100 |  |  |  |  |  |  |  |  |  |  | 
Cc1nc2c(o1)C(=Nc1ccccc1)c1ccccc1C2=O | 19.5 | 27.1 |  | 32.9 | 22.8 | 29.7 | 40.1 | 30.9 | 25.9 |  |  |  |  |  |  |  |  |  |  | 
COc1ccc(C(c2ccc(OCCN(C)C)cc2)c2cc3ccccc3c3ccccc23)cc1 (stereo not given) |  | 3.3 |  | 3.34 | 3.25 | 3.47 | 3.3 | 3.39 | 2.64 | 3.61 |  | 1.59 |  | 1.74 | 1.77 | 1.68 | 1.8 | 1310 | 1800 | 1810
